Measurements published in paper PMC4599284, “Redox effects and cytotoxic profiles of MJ25 and auranofin towards malignant melanoma cells” (Oncotarget, 2015).

Key:
[1] = target: T1, thioredoxin reductase 1 (TrxR1) (Rattus norvegicus, UniProt O89049); assay: NADPH-dependent DTNB reduction assay with purified enzyme; irreversibility tested by desalting; type: biochemical
T1 construct: gene Txnrd1; recombinant selenocysteine-containing rat TrxR1
T1 sequence (O89049 1-499): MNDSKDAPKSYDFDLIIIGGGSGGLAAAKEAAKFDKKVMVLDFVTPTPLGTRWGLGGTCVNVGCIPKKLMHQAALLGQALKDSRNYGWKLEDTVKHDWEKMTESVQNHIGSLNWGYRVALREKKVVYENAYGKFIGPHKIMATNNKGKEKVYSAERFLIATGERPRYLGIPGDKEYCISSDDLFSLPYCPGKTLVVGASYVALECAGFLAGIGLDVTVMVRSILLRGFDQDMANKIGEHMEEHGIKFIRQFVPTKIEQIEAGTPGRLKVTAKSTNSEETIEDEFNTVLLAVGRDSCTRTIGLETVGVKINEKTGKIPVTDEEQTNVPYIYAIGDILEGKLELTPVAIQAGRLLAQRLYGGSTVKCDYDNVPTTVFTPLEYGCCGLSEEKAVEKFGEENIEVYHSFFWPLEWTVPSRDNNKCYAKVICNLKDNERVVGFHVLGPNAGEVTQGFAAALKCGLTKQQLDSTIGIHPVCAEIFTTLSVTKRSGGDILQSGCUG

[2] = target: T1, thioredoxin reductase 1 (TrxR1); assay: NADPH-dependent juglone reduction by purified enzyme, NADPH consumption at […] nm; type: biochemical

CC[P](CC)(CC)=[Au][S][C@@H]1O[C@H](COC(C)=O)[C@@H](OC(C)=O)[C@H](OC(C)=O)[C@H]1OC(C)=O [auranofin]
NADPH-dependent DTNB reduction assay with purified enzyme; irreversibility teste [1]: Both MJ25 and auranofin were found to inhibit TrxR1 irreversibly.

O=S(=O)(CCSc1nc2ccccc2o1)c1nc2ccccc2s1 [MJ25, 2-{[2-(1,3-benzothiazol-2-ylsulfonyl)ethyl]thio}-1,3-benzoxazole]
NADPH-dependent DTNB reduction assay with purified enzyme; irreversibility teste [1]: we also confirmed that repurchased MJ25 inhibited recombinant TrxR1 (Figure 4a)

O=C1C=CC(=O)c2c(O)cccc21 [juglone, 5-hydroxy-1,4-naphthoquinone]
NADPH-dependent juglone reduction by purified enzyme, NADPH consumption at 340 n [2]: using juglone as a Sec-independent substrate and the DTNB assay as a Sec-dependent activity control
